Assay results: patent US20220232834A1, “PSEUDOMONAS CHLORORAPHIS SPECIES AND ITS USE IN THE CONTROL OF DISEASES CAUSED BY BACTERIA AND FUNGI” (T3 BIOSCIENCE, LLC, priority 2021, published 2022)
≈ marks a conversion by molar mass, not a printed value.

Assays:
Type in all cases: cell-based
[1] = system: Ralstonia solanacearum Pss4; experiment: microbe, parasite or virus in culture; conditions: PSS4, read-out: Diameter of Growth Inhibition Zone
[2] = system: Pseudomonas syringae. pv. tomato PT30; experiment: microbe, parasite or virus in culture; conditions: read-out: Diameter of Growth Inhibition Zone
[3] = system: Ralstonia solanacearum K60; experiment: microbe, parasite or virus in culture; conditions: Ralstonia solanacearum, K60
[4] = system: Pectobacterium parmentieri UPP163 936; experiment: microbe, parasite or virus in culture; conditions: UPP163936, read-out: Diameter of Growth Inhibition Zone
[5] = system: Xanthomonas campestris pv. vesicatoria XV-16; experiment: microbe, parasite or virus in culture; conditions: read-out: Diameter of Growth Inhibition Zone
Erwinia amylovora 1189 = experiment: microbe, parasite or virus in culture; conditions: Erwinia amylovora, 1189, read-out: Diameter of Growth Inhibition Zone
[6] = system: Xanthomonas axonopodis pv. citri-Miami XC2002-00010; experiment: plate diffusion assay; conditions: read-out: Diameter of Growth Inhibition Zone
[7] = system: Pseudomonas syringae. pv. lachrymans 1188-1; experiment: microbe, parasite or virus in culture; conditions: read-out: Diameter of Growth Inhibition Zone
[8] = system: Xanthomonas campestris pv. pruni; experiment: microbe, parasite or virus in culture; conditions: read-out: Diameter of Growth Inhibition Zone
[9] = system: Ralstonia solanacearum K60; experiment: microbe, parasite or virus in culture; conditions: K60, read-out: Diameter of Growth Inhibition Zone
[10] = system: Pseudomonas syringae. pv syringae 7046; experiment: microbe, parasite or virus in culture; conditions: read-out: Diameter of Growth Inhibition Zone
[11] = system: Pseudomonas savastanoi pv. savastanoi; experiment: microbe, parasite or virus in culture; conditions: read-out: Diameter of Growth Inhibition Zone
Erwinia amylovora CA11 = experiment: microbe, parasite or virus in culture; conditions: CA11, read-out: Diameter of Growth Inhibition Zone
[12] = system: Clavibacter michiganensis subsp. michiganensis 382; experiment: MIC value study of 1214-CHY4 metabolites; conditions: Clavibacter michiganensis
Dickeya dadantii 3937 = experiment: microbe, parasite or virus in culture; conditions: Dickeya dadantii, 3937, read-out: Diameter of Growth Inhibition Zone
[13] = system: Xanthomonas euvesicatoria 75-3; experiment: microbe, parasite or virus in culture; conditions: 753
Erwinia amylovora 110 = experiment: microbe, parasite or virus in culture; conditions: Erwinia amylovora, 110, read-out: Diameter of Growth Inhibition Zone
[14] = system: Pectobacterium carotovorum subsp. carotovorum wpp14 945; experiment: microbe, parasite or virus in culture; conditions: read-out: Diameter of Growth Inhibition Zone
[15] = system: Xanthomonas arboricola pv. juglandis 219; experiment: microbe, parasite or virus in culture; conditions: read-out: Diameter of Growth Inhibition Zone
[16] = system: Pectobacterium atrosepticum 942; experiment: microbe, parasite or virus in culture; conditions: Pectobacterium atrosepticum, 942, read-out: Diameter of Growth Inhibition Zone
[17] = system: Xanthomonas axonopodis pv. citri N40-SO5; experiment: plate diffusion assay; conditions: read-out: Diameter of Growth Inhibition Zone
[18] = system: Pseudomonas syringae. pv. tomato PT30; experiment: microbe, parasite or virus in culture
Erwinia amylovora 88 = experiment: microbe, parasite or virus in culture; conditions: Erwinia amylovora, 88, read-out: Diameter of Growth Inhibition Zone
Erwinia amylovora DM1 = experiment: microbe, parasite or virus in culture; conditions: DM1, read-out: Diameter of Growth Inhibition Zone
[19] = system: Pectobacterium carotovorum subsp brasillensis 944; experiment: microbe, parasite or virus in culture; conditions: read-out: Diameter of Growth Inhibition Zone
[20] = system: Xanthomonas arboricola pv. juglandis 417; experiment: microbe, parasite or virus in culture; conditions: read-out: Diameter of Growth Inhibition Zone

`[H]/N=C(/N)N[C@H]1[C@H](O)[C@@H](O)[C@H](O[C@@H]2O[C@@H](C)[C@](O)(C=O)[C@H]2O[C@@H]2O[C@@H](CO)[C@H](O)[C@@H](O)[C@@H]2NC)[C@@H](N/C(N)=N\[H])[C@@H]1O` [Streptomycin] showed a zone of inhibition at 200 µg/mL [1] of 3 mm, a zone of inhibition at 200 µg/mL [2] of 6 mm and an MIC [3] of 25 µg/mL (≈ 43 µM). It also gave a zone of inhibition at 200 µg/mL [4] of 5 mm, a zone of inhibition at 200 µg/mL [5] of 10 mm and a zone of inhibition at 200 µg/mL (Erwinia amylovora 1189) of 5 mm. The zone of inhibition at 200 µg/mL [6] was 21 mm, the zone of inhibition at 200 µg/mL [7] was 6 mm and the zone of inhibition at 200 µg/mL [8] was 0 mm. For the same molecule, the zone of inhibition at 200 µg/mL [9] was 3 mm, the zone of inhibition at 200 µg/mL [10] was 5 mm and the zone of inhibition at 200 µg/mL [11] was 6 mm. For the same molecule, the zone of inhibition at 200 µg/mL (Erwinia amylovora CA11) was 0 mm, the MIC [12] was 12.5 µg/mL and the zone of inhibition at 200 µg/mL (Dickeya dadantii 3937) was 5 mm. The MIC [13] was 50 µg/mL (≈ 86 µM), the zone of inhibition at 200 µg/mL (Erwinia amylovora 110) was 5 mm and the zone of inhibition at 200 µg/mL [14] was 0 mm. It also gave a zone of inhibition at 200 µg/mL [15] of 0 mm, a zone of inhibition at 200 µg/mL [16] of 0 mm and a zone of inhibition at 200 µg/mL [17] of 22 mm. It also gave an MIC [18] of 3.13 µg/mL (≈ 5.38 µM), a zone of inhibition at 200 µg/mL (Erwinia amylovora 88) of 0 mm and a zone of inhibition at 200 µg/mL (Erwinia amylovora DM1) of 0 mm. It also gave a zone of inhibition at 200 µg/mL [19] of 0 mm and a zone of inhibition at 200 µg/mL [20] of 10 mm.
